# Experimental data reported in PubChem BioAssay (NCI).
#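 Tested at 5 concentrations; 48 h exposure; 96-well plates; endpoints linearly interpolated, else capped at highest concentration. The concentration for full growth arrest is given as TGI.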
# Experiments:
# Assay in all cases: inhibition of tumour cell growth, NCI panel, 48 h
# SF-295 CNS = tested on: SF-295 CNS
# UACC-62 melanoma = tested on: UACC-62 melanoma
# SK-MEL-28 melanoma = tested on: SK-MEL-28 melanoma
# M19-MEL melanoma = tested on: M19-MEL melanoma
# IGROV1 ovarian = tested on: IGROV1 ovarian
# COLO 205 colon = tested on: COLO 205 colon
# CCRF-CEM leukemia = tested on: CCRF-CEM leukemia
# SK-MEL-5 melanoma = tested on: SK-MEL-5 melanoma
# A549 NSCLC = tested on: A549 NSCLC
# SW-620 colon = tested on: SW-620 colon
# U251 CNS = tested on: U251 CNS
# ACHN renal = tested on: ACHN renal
# OVCAR-4 ovarian = tested on: OVCAR-4 ovarian
# CAKI-1 renal = tested on: CAKI-1 renal
# OVCAR-8 ovarian = tested on: OVCAR-8 ovarian
# DLD-1 colon = tested on: DLD-1 colon
# EKVX NSCLC = tested on: EKVX NSCLC
# HL-60(TB) leukemia = tested on: HL-60(TB) leukemia
# MOLT-4 leukemia = tested on: MOLT-4 leukemia
# HT29 colon = tested on: HT29 colon
# M14 melanoma = tested on: M14 melanoma
# NCI-H23 lung = tested on: NCI-H23 lung
# KM20L2 colon = tested on: KM20L2 colon
# SNB-75 CNS = tested on: SNB-75 CNS
# HOP-92 NSCLC = tested on: HOP-92 NSCLC
# LOX IMVI melanoma = tested on: LOX IMVI melanoma
# DMS 114 small cell lung = tested on: DMS 114 small cell lung
# SNB-19 CNS = tested on: SNB-19 CNS
# HOP-18 NSCLC = tested on: HOP-18 NSCLC
# XF 498 CNS = tested on: XF 498 CNS
# RXF 393 renal = tested on: RXF 393 renal
# SN12C renal = tested on: SN12C renal
# NCI-H460 lung = tested on: NCI-H460 lung
# RPMI-8226 leukemia = tested on: RPMI-8226 leukemia
# UO-31 renal = tested on: UO-31 renal
# DMS 273 small cell lung = tested on: DMS 273 small cell lung
# RXF-631 renal = tested on: RXF-631 renal
# OVCAR-5 ovarian = tested on: OVCAR-5 ovarian
# HCT-15 colon = tested on: HCT-15 colon
# TK-10 renal = tested on: TK-10 renal
# SK-OV-3 ovarian = tested on: SK-OV-3 ovarian
# K-562 leukemia = tested on: K-562 leukemia
# UACC-257 melanoma = tested on: UACC-257 melanoma
# HCT-116 colon = tested on: HCT-116 colon
# SNB-78 CNS = tested on: SNB-78 CNS
# NCI-H522 lung = tested on: NCI-H522 lung
# MALME-3M melanoma = tested on: MALME-3M melanoma
# A498 renal = tested on: A498 renal
# HOP-62 NSCLC = tested on: HOP-62 NSCLC
# SF-268 CNS = tested on: SF-268 CNS
# SK-MEL-2 melanoma = tested on: SK-MEL-2 melanoma
# OVCAR-3 ovarian = tested on: OVCAR-3 ovarian
# LXFL 529 NSCLC = tested on: LXFL 529 NSCLC
# SF-539 CNS = tested on: SF-539 CNS
# NCI-H226 lung = tested on: NCI-H226 lung
# 786-0 renal = tested on: 786-0 renal
# KM12 colon = tested on: KM12 colon
smiles,measurement,setting,value
COc1cc(C2C(C(=O)O)=C(CO)Oc3cc4c(cc32)OCO4)cc(OC)c1OC (stereo unspecified),TGI,SF-295 CNS,> 100 µM
same,TGI,UACC-62 melanoma,> 100 µM
same,TGI,SK-MEL-28 melanoma,> 100 µM
same,TGI,M19-MEL melanoma,> 100 µM
same,TGI,IGROV1 ovarian,> 100 µM
same,TGI,COLO 205 colon,> 100 µM
same,TGI,CCRF-CEM leukemia,> 100 µM
same,TGI,SK-MEL-5 melanoma,> 100 µM
same,TGI,A549 NSCLC,> 100 µM
same,TGI,SW-620 colon,> 100 µM
same,TGI,U251 CNS,> 100 µM
same,TGI,ACHN renal,> 100 µM
same,TGI,OVCAR-4 ovarian,> 100 µM
same,TGI,CAKI-1 renal,> 100 µM
same,TGI,OVCAR-8 ovarian,> 100 µM
same,TGI,DLD-1 colon,> 100 µM
same,TGI,EKVX NSCLC,> 100 µM
same,TGI,HL-60(TB) leukemia,> 100 µM
same,TGI,MOLT-4 leukemia,> 100 µM
same,TGI,HT29 colon,> 100 µM
same,TGI,M14 melanoma,> 100 µM
same,TGI,NCI-H23 lung,> 100 µM
same,TGI,KM20L2 colon,> 100 µM
same,TGI,SNB-75 CNS,> 100 µM
same,TGI,HOP-92 NSCLC,> 100 µM
same,TGI,LOX IMVI melanoma,> 100 µM
same,TGI,DMS 114 small cell lung,> 100 µM
same,TGI,SNB-19 CNS,> 100 µM
same,TGI,HOP-18 NSCLC,> 100 µM
same,TGI,XF 498 CNS,> 100 µM
same,TGI,RXF 393 renal,> 100 µM
same,TGI,SN12C renal,> 100 µM
same,TGI,NCI-H460 lung,> 100 µM
same,TGI,RPMI-8226 leukemia,> 100 µM
same,TGI,UO-31 renal,> 100 µM
same,TGI,DMS 273 small cell lung,> 100 µM
same,TGI,RXF-631 renal,> 100 µM
same,TGI,OVCAR-5 ovarian,> 100 µM
same,TGI,HCT-15 colon,> 100 µM
same,TGI,TK-10 renal,> 100 µM
same,TGI,SK-OV-3 ovarian,> 100 µM
same,TGI,K-562 leukemia,> 100 µM
same,TGI,UACC-257 melanoma,> 100 µM
same,TGI,HCT-116 colon,> 100 µM
same,TGI,SNB-78 CNS,> 100 µM
C[C@]12CCC3[C@@H](CC[C@@H]4c5nonc5CC[C@]34C)C1CCC2=O (stereo partly specified),TGI,SF-295 CNS,79.3 µM
same,TGI,UACC-62 melanoma,52.3 µM
same,TGI,SK-MEL-28 melanoma,63.8 µM
same,TGI,M19-MEL melanoma,52.8 µM
same,TGI,IGROV1 ovarian,> 100 µM
same,TGI,COLO 205 colon,33.3 µM
same,TGI,NCI-H522 lung,50.1 µM
same,TGI,CCRF-CEM leukemia,61.3 µM
same,TGI,SK-MEL-5 melanoma,31.4 µM
same,TGI,MALME-3M melanoma,52.6 µM
same,TGI,A549 NSCLC,92.4 µM
same,TGI,SW-620 colon,> 100 µM
same,TGI,U251 CNS,32.5 µM
same,TGI,A498 renal,68.2 µM
same,TGI,ACHN renal,77.7 µM
same,TGI,OVCAR-4 ovarian,84 µM
same,TGI,CAKI-1 renal,95.5 µM
same,TGI,OVCAR-8 ovarian,> 100 µM
same,TGI,EKVX NSCLC,83.1 µM
same,TGI,HOP-62 NSCLC,> 100 µM
same,TGI,SF-268 CNS,> 100 µM
same,TGI,SK-MEL-2 melanoma,56.5 µM
same,TGI,HL-60(TB) leukemia,38.9 µM
same,TGI,MOLT-4 leukemia,61 µM
same,TGI,OVCAR-3 ovarian,40.4 µM
same,TGI,HT29 colon,41.1 µM
same,TGI,M14 melanoma,37 µM
same,TGI,NCI-H23 lung,92.5 µM
same,TGI,LXFL 529 NSCLC,59.8 µM
same,TGI,KM20L2 colon,> 100 µM
same,TGI,SNB-75 CNS,93.6 µM
same,TGI,HOP-92 NSCLC,51.5 µM
same,TGI,LOX IMVI melanoma,39.5 µM
same,TGI,DMS 114 small cell lung,53.9 µM
same,TGI,SF-539 CNS,45.9 µM
same,TGI,SNB-19 CNS,> 100 µM
same,TGI,HOP-18 NSCLC,> 100 µM
same,TGI,XF 498 CNS,44.4 µM
same,TGI,RXF 393 renal,78.3 µM
same,TGI,SN12C renal,47.3 µM
same,TGI,NCI-H460 lung,39.7 µM
same,TGI,RPMI-8226 leukemia,44 µM
same,TGI,UO-31 renal,39 µM
same,TGI,NCI-H226 lung,62.7 µM
same,TGI,DMS 273 small cell lung,47.1 µM
same,TGI,RXF-631 renal,> 100 µM
same,TGI,OVCAR-5 ovarian,> 100 µM
same,TGI,HCT-15 colon,> 100 µM
same,TGI,TK-10 renal,> 100 µM
same,TGI,SK-OV-3 ovarian,> 100 µM
same,TGI,786-0 renal,64.3 µM
same,TGI,K-562 leukemia,> 100 µM
same,TGI,KM12 colon,50.2 µM
same,TGI,UACC-257 melanoma,40.4 µM
same,TGI,HCT-116 colon,31.7 µM
same,TGI,SNB-78 CNS,99.7 µM
